Source: ChEMBL document CHEMBL5715954, “Silencing c-Myc translation as a therapeutic strategy through targeting PI3Kδ and CK1ε in hematological malignancies” (Blood, 2017)

Assays:
Design in all cases: scale not given: the % may be the effect or the level left
[1] = target: T1, Serine/threonine-protein kinase PLK4 (Homo sapiens) (UniProt O00444); assay: Inhibition of human PLK4 assessed as enzyme activity at 1 uM using casein as substrate preincubated for 20 mins followed by [gamma-33P]-ATP addition and measured after 120 mins by radiometric Hot-SpotSM Kinase assay relative to control
T1 sequence (whole entry): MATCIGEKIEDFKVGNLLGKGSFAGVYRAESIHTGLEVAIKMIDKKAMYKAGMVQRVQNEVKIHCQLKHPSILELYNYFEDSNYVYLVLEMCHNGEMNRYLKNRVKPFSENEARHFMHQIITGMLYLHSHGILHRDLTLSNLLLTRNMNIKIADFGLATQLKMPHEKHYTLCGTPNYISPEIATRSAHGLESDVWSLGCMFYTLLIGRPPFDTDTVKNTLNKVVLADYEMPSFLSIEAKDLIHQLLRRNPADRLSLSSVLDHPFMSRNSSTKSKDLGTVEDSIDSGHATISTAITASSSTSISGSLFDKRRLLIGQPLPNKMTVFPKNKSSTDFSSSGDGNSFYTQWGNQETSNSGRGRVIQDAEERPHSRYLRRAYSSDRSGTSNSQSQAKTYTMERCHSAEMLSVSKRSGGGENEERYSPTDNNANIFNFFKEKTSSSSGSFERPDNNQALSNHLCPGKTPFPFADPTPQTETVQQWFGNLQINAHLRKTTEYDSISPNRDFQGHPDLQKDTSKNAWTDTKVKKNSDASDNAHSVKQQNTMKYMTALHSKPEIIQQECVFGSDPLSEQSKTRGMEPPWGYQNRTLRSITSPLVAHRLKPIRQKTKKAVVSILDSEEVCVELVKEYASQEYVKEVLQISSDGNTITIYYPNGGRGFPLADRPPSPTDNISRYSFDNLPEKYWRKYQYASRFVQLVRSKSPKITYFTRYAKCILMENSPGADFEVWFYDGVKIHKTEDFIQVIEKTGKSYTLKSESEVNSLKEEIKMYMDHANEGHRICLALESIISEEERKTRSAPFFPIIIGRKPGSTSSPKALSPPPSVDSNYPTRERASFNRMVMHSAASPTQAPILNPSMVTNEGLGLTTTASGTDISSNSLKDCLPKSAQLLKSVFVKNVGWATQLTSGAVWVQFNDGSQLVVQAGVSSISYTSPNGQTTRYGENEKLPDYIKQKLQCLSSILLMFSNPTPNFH

[2] = target: T2, Serine/threonine-protein kinase Chk1 (Homo sapiens) (UniProt O14757); assay: Inhibition of human CHK1 assessed as enzyme activity at 1 uM using KKKVSRSGLYRSPSMPENLNRPR as substrate preincubated for 20 mins followed by [gamma-33P]-ATP addition and measured after 120 mins by radiometric Hot-SpotSM Kinase assay relative to control
T2 sequence (whole entry): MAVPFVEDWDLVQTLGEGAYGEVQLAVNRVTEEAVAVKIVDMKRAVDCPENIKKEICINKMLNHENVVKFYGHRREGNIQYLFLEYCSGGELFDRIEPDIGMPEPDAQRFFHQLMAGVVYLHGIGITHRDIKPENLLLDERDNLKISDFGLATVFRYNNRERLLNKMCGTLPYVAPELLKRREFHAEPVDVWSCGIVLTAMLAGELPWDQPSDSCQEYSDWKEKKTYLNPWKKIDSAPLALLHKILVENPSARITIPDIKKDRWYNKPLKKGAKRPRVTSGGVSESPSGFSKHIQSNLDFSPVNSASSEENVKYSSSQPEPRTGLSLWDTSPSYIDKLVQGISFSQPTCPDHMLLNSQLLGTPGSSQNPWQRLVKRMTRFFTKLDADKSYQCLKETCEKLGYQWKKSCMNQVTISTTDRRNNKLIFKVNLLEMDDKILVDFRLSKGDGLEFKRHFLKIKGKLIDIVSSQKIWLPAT

[3] = target: T3, Ephrin type-A receptor 1 (Homo sapiens) (UniProt P21709); assay: Inhibition of human EPHA1 assessed as enzyme activity at 1 uM using poly[Glu:Tyr] (4:1) as substrate preincubated for 20 mins followed by [gamma-33P]-ATP addition and measured after 120 mins by radiometric Hot-SpotSM Kinase assay relative to control
T3 sequence (whole entry): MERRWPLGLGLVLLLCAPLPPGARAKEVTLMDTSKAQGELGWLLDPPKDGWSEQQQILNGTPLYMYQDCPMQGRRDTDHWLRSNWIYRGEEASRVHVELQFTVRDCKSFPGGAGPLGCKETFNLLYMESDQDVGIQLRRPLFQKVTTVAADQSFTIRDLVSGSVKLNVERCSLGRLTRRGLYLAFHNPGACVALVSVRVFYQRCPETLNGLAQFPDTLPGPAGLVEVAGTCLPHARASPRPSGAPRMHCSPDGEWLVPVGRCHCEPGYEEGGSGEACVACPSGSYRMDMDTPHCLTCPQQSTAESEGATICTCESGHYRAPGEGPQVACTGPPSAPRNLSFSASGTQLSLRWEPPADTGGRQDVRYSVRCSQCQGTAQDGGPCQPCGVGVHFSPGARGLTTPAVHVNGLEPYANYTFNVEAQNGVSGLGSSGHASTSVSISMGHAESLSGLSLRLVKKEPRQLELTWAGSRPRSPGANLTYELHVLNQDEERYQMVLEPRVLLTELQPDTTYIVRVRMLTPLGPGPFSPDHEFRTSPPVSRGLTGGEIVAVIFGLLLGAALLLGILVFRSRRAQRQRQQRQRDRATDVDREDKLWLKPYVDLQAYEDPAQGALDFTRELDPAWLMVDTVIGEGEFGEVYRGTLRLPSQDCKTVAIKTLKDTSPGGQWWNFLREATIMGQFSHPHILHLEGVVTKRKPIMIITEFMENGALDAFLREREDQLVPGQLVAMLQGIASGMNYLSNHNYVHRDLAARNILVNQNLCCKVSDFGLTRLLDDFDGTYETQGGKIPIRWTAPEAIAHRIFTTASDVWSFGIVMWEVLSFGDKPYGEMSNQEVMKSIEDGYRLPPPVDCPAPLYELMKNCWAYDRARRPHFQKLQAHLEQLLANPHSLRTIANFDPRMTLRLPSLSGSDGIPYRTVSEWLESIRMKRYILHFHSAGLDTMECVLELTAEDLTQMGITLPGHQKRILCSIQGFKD

[4] = target: Phosphorylase b kinase gamma catalytic chain, skeletal muscle/heart isoform (Homo sapiens) (UniProt Q16816); assay: Inhibition of human PHKg1 assessed as enzyme activity at 1 uM using KKLNRTLSFAEPG as substrate preincubated for 20 mins followed by [gamma-33P]-ATP addition and measured after 120 mins by radiometric Hot-SpotSM Kinase assay relative to control
Sequence of Phosphorylase b kinase gamma catalytic chain, skeletal muscle/heart isoform (Homo sapiens) (Q16816 whole entry, looked up, canonical isoform): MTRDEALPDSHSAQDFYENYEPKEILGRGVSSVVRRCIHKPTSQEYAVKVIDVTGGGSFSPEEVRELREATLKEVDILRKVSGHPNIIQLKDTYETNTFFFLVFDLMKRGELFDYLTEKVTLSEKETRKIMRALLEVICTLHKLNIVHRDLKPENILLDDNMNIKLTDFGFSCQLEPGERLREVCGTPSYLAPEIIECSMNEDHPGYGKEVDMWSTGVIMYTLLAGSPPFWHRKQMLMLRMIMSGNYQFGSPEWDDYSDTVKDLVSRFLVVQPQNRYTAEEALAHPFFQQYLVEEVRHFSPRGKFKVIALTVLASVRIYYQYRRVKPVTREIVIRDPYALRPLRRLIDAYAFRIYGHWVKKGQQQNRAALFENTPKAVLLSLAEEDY

[5] = target: Serine/threonine-protein kinase OSR1 (Homo sapiens) (UniProt O95747); assay: Inhibition of human OSR1 assessed as enzyme activity at 1 uM using RRHYYYDTHTNTYYLRTFGHNTRR as substrate preincubated for 20 mins followed by [gamma-33P]-ATP addition and measured after 120 mins by radiometric Hot-SpotSM Kinase assay relative to control
Sequence of Serine/threonine-protein kinase OSR1 (Homo sapiens) (O95747 2-527 limits assumed): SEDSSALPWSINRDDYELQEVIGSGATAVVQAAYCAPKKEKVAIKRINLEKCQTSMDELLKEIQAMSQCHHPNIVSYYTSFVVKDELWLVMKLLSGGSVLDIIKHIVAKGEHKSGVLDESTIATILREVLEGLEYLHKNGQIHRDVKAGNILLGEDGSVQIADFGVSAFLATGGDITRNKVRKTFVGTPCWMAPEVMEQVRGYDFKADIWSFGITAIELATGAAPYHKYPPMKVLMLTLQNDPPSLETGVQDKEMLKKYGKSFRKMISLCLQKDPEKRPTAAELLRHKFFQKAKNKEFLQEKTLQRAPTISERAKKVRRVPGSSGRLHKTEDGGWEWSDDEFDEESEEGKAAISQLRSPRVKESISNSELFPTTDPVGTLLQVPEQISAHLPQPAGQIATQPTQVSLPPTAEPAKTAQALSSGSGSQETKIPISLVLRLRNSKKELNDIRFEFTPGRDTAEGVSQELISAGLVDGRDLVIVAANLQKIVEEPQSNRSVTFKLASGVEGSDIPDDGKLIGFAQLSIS

SMILES: C[C@H](Nc1ncnc2nc[nH]c12)c1cc2cccc(Cl)c2c(=O)n1-c1ccccc1
- Activity [1]: 91%
- Activity [2]: 94.1%
- Activity [3]: 95.2%
- Activity [4]: 98.4%
- Activity [5]: 97.1%

SMILES: CC[C@H](Nc1ncnc2[nH]cnc12)c1nc2cccc(F)c2c(=O)n1-c1ccccc1
- Activity [1]: 99.9%
- Activity [2]: 93.2%
- Activity [3]: 91.4%
- Activity [4]: 99%
- Activity [5]: 93.2%

SMILES: CC(C)Oc1ccc(-c2nn([C@@H](C)c3oc4ccc(F)cc4c(=O)c3-c3cccc(F)c3)c3ncnc(N)c23)cc1F [UMBRALISIB]
- Activity [1]: 102%
- Activity [2]: 95%
- Activity [3]: 96.4%
- Activity [4]: 95.4%
- Activity [5]: 95.5%
